{"source": "the OPERA property sets (Mansouri et al. 2018)", "data": [{"units": {"melting point": "°C", "boiling point": "°C"}, "values": [{"compound": "OCC(CO)(CO)CBr", "melting point": 76}, {"compound": "Cc1ccc(N)cc1N", "boiling point": 292, "log10 vapour pressure (mmHg)": -3.77, "melting point": 99, "ready biodegradability": "not readily biodegradable"}, {"compound": "C=C(CC)CCC", "boiling point": 94}, {"compound": "COc1cccc(Cl)c1Cl", "melting point": 32}, {"compound": "CCOP(=S)(OCC)SCS(=O)C(C)(C)C", "note": "(configuration not stated)", "log10 Koc (L/kg)": 2.18}, {"compound": "FC(F)(F)C1(F)C(F)(F)C(F)(C(F)(F)F)C(F)(F)C(F)(C(F)(F)F)C1(F)F", "note": "(configuration not stated)", "boiling point": 125}, {"compound": "Cc1ccc2ccc(=O)oc2c1", "melting point": 128}, {"compound": "Cc1ccccc1CCO", "boiling point": 244, "melting point": 2}, {"compound": "CC1=CCCC1=O", "boiling point": 157}, {"compound": "CC(C)(Br)C(=O)O", "boiling point": 199, "melting point": 48.5}, {"compound": "Oc1c(Br)cccc1Br", "boiling point": 255, "melting point": 56.5}, {"compound": "Cc1cc2c(cc1S(N)(=O)=O)S(=O)(=O)CCC2", "melting point": 236}, {"compound": "CC(C)C1=CC2=C(CC1)[C@@]1(C)CCC[C@@](C)(C(=O)O)[C@@H]1CC2", "melting point": 164}, {"compound": "O=[N+]([O-])c1cc(I)c(O)c(I)c1", "melting point": 157}, {"compound": "CC(C)(C)CCCl", "boiling point": 115}, {"compound": "OC1CCCC1", "boiling point": 140, "log10 vapour pressure (mmHg)": 0.396, "melting point": -19}, {"compound": "O=C1C=CC(=O)O1", "boiling point": 202, "log10 vapour pressure (mmHg)": -0.602, "melting point": 52.8, "ready biodegradability": "readily biodegradable"}, {"compound": "CN(C)CCCNc1c2ccccc2nc2cccc([N+](=O)[O-])c12", "melting point": 134}, {"compound": "C1CSCCO1", "boiling point": 147}, {"compound": "CC(C)(O)Cc1ccccc1", "boiling point": 215, "melting point": 24}, {"compound": "N#Cc1c(F)c(F)c(F)c(F)c1C#N", "melting point": 83}, {"compound": "CCC(CC)(CO)CO", "boiling point": 240, "melting point": 61.5}, {"compound": "CCC(C)Nc1c([N+](=O)[O-])cc(C(C)(C)C)cc1[N+](=O)[O-]", "note": "(configuration not stated)", "log10 Koc (L/kg)": 3.98, "log10 vapour pressure (mmHg)": -4.9, "melting point": 60}, {"compound": "CC(=O)Nc1cc(NS(=O)(=O)C(F)(F)F)c(C)cc1C", "log10 Koc (L/kg)": 2.3, "melting point": 184}, {"compound": "S=C(Nc1cccc2ccccc12)Nc1cccc2ccccc12", "melting point": 208}, {"compound": "CC(N)CC(=O)O", "note": "(configuration not stated)", "melting point": 193}, {"compound": "CCC(C)c1ccccc1OC(=O)NC", "note": "(configuration not stated)", "log10 Koc (L/kg)": 1.71, "log10 vapour pressure (mmHg)": -3.85, "melting point": 31.5, "ready biodegradability": "not readily biodegradable"}, {"compound": "CC(C)(c1ccc(O)cc1)c1ccc(O)cc1", "melting point": 153, "ready biodegradability": "not readily biodegradable"}, {"compound": "CCOC(=O)NC(C)(C)Cc1ccc(Cl)cc1", "melting point": 52.8}, {"compound": "Cc1ncc(COP(=O)(O)O)c(C=O)c1O", "melting point": 255}, {"compound": "CC1=Cc2ccccc2C1", "boiling point": 208, "log10 biodegradation half-life (days)": 0.477, "melting point": 80}, {"compound": "COc1ccc(C(C)=O)c(O)c1", "melting point": 52.5}, {"compound": "COC(C)OC", "boiling point": 64.5, "log10 vapour pressure (mmHg)": 2.23, "melting point": -113}, {"compound": "C#CCC", "boiling point": 8, "log10 vapour pressure (mmHg)": 3.15, "melting point": -126}, {"compound": "C=C(C)C(=O)OCCO", "log10 vapour pressure (mmHg)": -0.9, "ready biodegradability": "readily biodegradable"}, {"compound": "O=C1OC(=O)c2cc(Cl)c(Cl)cc21", "boiling point": 313, "melting point": 188}, {"compound": "C1CC2CC12", "note": "(configuration not stated)", "boiling point": 45.5, "log10 vapour pressure (mmHg)": 2.56}, {"compound": "O=[N+]([O-])c1ccc(/C=C/c2cccc(CO)n2)o1", "melting point": 170}, {"compound": "Fc1cccc(Br)c1", "boiling point": 150}, {"compound": "CCN(CC)C(=O)N1CCN(C)CC1", "melting point": 48}, {"compound": "CCCSCC", "boiling point": 119, "log10 vapour pressure (mmHg)": 1.27, "melting point": -117}, {"compound": "CCCCCCCOC(=O)CCCC", "boiling point": 245, "melting point": -46.4}, {"compound": "O=C(O)c1cccc(C(=O)O)c1O", "melting point": 244}, {"compound": "c1ccc2c(c1)OCCOCCOCCOCCO2", "melting point": 79}, {"compound": "c1ccc2c(c1)ccc1cc3c(ccc4ccccc43)cc12", "boiling point": 524, "log10 Koc (L/kg)": 6.22, "log10 biodegradation half-life (days)": 2.62, "log10 vapour pressure (mmHg)": -9.02, "melting point": 270, "ready biodegradability": "not readily biodegradable"}, {"compound": "ClC(I)I", "melting point": -4}, {"compound": "C#CCCCCCCCCCCCCCCCC", "boiling point": 313, "melting point": 22.5}, {"compound": "O=C(NC(=O)c1c(F)cccc1F)Nc1cc(Cl)c(F)c(Cl)c1F", "log10 vapour pressure (mmHg)": -11.2, "melting point": 222}, {"compound": "O=C(Nc1ccccc1)c1cc(Cl)ccc1O", "melting point": 211}, {"compound": "c1ccc2oncc2c1", "boiling point": 215}, {"compound": "NCc1ccccc1Sc1ccccc1CO", "melting point": 97}, {"compound": "BrCCCOc1ccccc1", "melting point": 10.7}, {"compound": "CC(C)OC(C)C", "boiling point": 68.5, "log10 Henry constant (atm·m³/mol)": -2.59, "log10 Koa": 2.66, "log10 vapour pressure (mmHg)": 2.17, "melting point": -86.8, "ready biodegradability": "not readily biodegradable"}, {"compound": "CCCCn1cccc1", "boiling point": 170}, {"compound": "N#CCC(=O)O", "melting point": 66, "ready biodegradability": "readily biodegradable"}, {"compound": "O=C(O)c1ccc2c(c1)C(=O)c1ccccc1-2", "melting point": 341}, {"compound": "CC(C)CCc1ccccc1", "boiling point": 195}, {"compound": "N#CC(Cl)Cl", "boiling point": 112}, {"compound": "Clc1ccccc1C=C1c2ccccc2-c2ccccc21", "melting point": 69.5}, {"compound": "Clc1cc(Cl)c(Cl)c(-c2cc(Cl)cc(Cl)c2Cl)c1", "log10 Koc (L/kg)": 6.48}, {"compound": "NC(=O)CF", "melting point": 108}, {"compound": "COC(=O)CCO", "boiling point": 179}, {"compound": "COc1ccc2c3c1O[C@H]1[C@@H](O)C=C[C@H]4[C@@H](C2)[N@@+](C)([O-])CC[C@@]341", "melting point": 232}, {"compound": "COc1ccc(C(C)=O)cc1", "boiling point": 258, "log10 vapour pressure (mmHg)": -2.19, "melting point": 38.5}, {"compound": "CCCC=CCC=O", "boiling point": 151}, {"compound": "C[Se][Se]C", "boiling point": 156, "log10 vapour pressure (mmHg)": 0.455}, {"compound": "FC(F)(F)c1cccc(Cl)c1", "boiling point": 138, "melting point": -56, "ready biodegradability": "not readily biodegradable"}]}]}
